Measurements published in US9809521B2, “Cannabidinoid derivatives” (priority 2011, dated 2017).
Like-named read-outs stand apart in the source and are kept apart here.

Columns and labels:
Ki67 = experiment: Immunohistochemical detection of Ki67 in lung metastatic foci; format: in vivo, mouse; conditions: 1 mg/kg
Description: CBD down-regulates Id-1 expression and breast cancer cell proliferation in lung metastatic foci. […] Lung tissue from mice treated with vehicle or CBD (1 mg/kg) were evaluated for Id-1 expression and Ki67, a marker of cellular proliferation (FIG. 5, panel A).
Immunohistochemical detection of Id-1 and Ki67 was performed in lung tissues of vehicle and CBD treated mice. Nuclei were stained with hematoxylin. […] The intensity of the immunohistochemical (IHC) detection of Id-1 was then graded from 0 to 4.

U251 GBM cells [1] = experiment: Viability assay, combination with Temozolomide; format: cell-based, human
Description: (§1) Viability Assays using drug combinations and statistical analysis: Multiple viability assays in a 96 well format were run for each compound and the average percent inhibition of cell viability was calculated and transformed to fraction affected (Fa) i.e., percent inhibitory effect. Additional CI values and a dose reduction index (DRI) were also calculated using Compusyn software. After determining the (IC50/Fa0.5) values of the drugs individually, components were then combined at the following concentration ranges: controls, 0.125×IC50, 0.25×IC50, 0.5×IC50 and a combination index was calculated where CI<1, =1, and >1 indicate synergism, additive effect, and antagonism, respectively.
(§2) Cell viability studies with U251 GBM cells using CBD in combination with Temozolomide. […] The concentration response curves were first generated for temozolomide, CBD alone, and a combination of CBD and temozolomide (FIG. 16, panel A). The inhibitory values from the concentration response curves were then used to calculate combination index (CI) values at multiple combination ratios (FIG. 16, panel B). From which, the data was also used to calculate (i) IC50 values, the slope of the curve (m) and a goodness of fit value (r).

[2] = tested on: SAS, HSC-2, ACCM and ACC2 cells; experiment: Head and neck and salivary gland cancer cells: Id-1 expression, viability, invasiveness; format: cell-based
Description: Measuring the effect of CBD on the aggressiveness of head and neck as well as salivary gland cancer cells. Head and neck cancer cell lines (SAS and HSC-2 in the upper panels) and salivary gland cancer cell lines (ACCM and ACC2 in the lower panels) were treated with CBD.

4T1 breast cancer cells = experiment: Viability assay, combination with Paclitaxel; format: cell-based, mouse
Description: as §1
as §2, with “4T1 breast cancer” for “U251 GBM”, “Paclitaxel.” for “Temozolomide.”, “Paclitaxel (PAC),” for “temozolomide,”, “Paclitaxel” for “temozolomide”, “11,” for “16,”, “i)” for “(i)”

U251 GBM cells [3] = experiment: Intracranial U251 GBM xenograft in nu/nu mice; format: in vivo, mouse
Description: Effects of CBD on GBM cell invasion in In Vivo Studies. To determine whether CBD could inhibit GBM cell invasion through intact brain tissue, an organotypic brain slice assay was utilized. GFP-labeled U251 cells were treated for two days in culture with vehicle or CBD. On the third day, the cells were harvested and transferred to the top of a 0.5 mm coronal rat brain slice obtain from a postnatal day 3 rat pup. A porous cell culture insert containing the slice was suspended for three days in a well containing conditioned media with either vehicle or 1 μM CBD. […] GBM tumors were generated in nu/nu mice by intracranial injection of U251 GBM cells. […] CBD produced a robust reduction of GBM progression, decreasing the tumor area by 95% (FIG. 14, panels B and C). […] This occurred concomitantly with a decrease in tumor cell proliferation (the number of Ki67-positive nuclei was decreased by 87%±9 (p<0.0001, Student's t-test)) (FIG. 14, panel D).

4T1 cells = experiment: In-vivo primary tumor proliferation (4T1 mammary fat pad, flank of Nude mice); set-up: species or system mouse; conditions: daily treatment from one week post injection
Description: In-vivo studies of breast and brain tumor formation with CBD. The compounds of the disclosure were effective in inhibiting tumor formation in an in-vivo model. Breast cancer 4T1 cells were subcutaneously injected into the mammary fat pad of BALBc mice (FIG. 8, Panel A), or into the flank of Nude mice (FIG. 8, Panel B). After one week post injection, the mice were treated daily (systemic in A, and peritumoral in B) with CBD […]. Primary tumor volume was then calculated by measuring the perpendicular largest diameters of the tumor with a caliper and using the formula (L×W^2/2).

Id-1 [4] = experiment: Quantitative Western analysis of Id-1 expression in different types of cancer cells; format: cell-based
Description: Quantitative Western analysis of Id-1 expression in different types of cancer cells with or without CBD treatment. Quantitative Western analysis was performed to examine whether CBD would downregulate Id-1 protein expression in cell lines for breast, prostate, salivary gland, head and neck, and glioblastoma cell lines. […] For the salivary gland cancer cell line, ACCM, a higher concentration of CBD (2.5 μM) was required to see a significant downregulation in Id-1 expression (FIG. 13, panel C (left)).

MDA-MB231 cells = experiment: Boyden chamber invasion assay; format: cell-based, human; conditions: for IC50: Homo sapiens
Description: Boyden chamber MDA-MB231 cell invasion studies with CBD, Δ^9-THC, or WIN 55,212-2. Invasion is an important step towards breast cancer cell metastasis. Therefore, the effects of several cannabinoids were tested on their ability to modulate the migratory and invasiveness activity of the most aggressive human breast cancer cell line, MDA-MB231, in a reconstituted basement membrane in a Boyden chamber.
Assays using Id-1 promoter reporter transfected MDA-MB231 cells with CBD. To determine if Id-1 represented a key mediator of CBD effects in highly aggressive breast cancer cells, Id-1 was constitutively expressed into MDA-MB231 cells (+)Id-1 as described in FIG. 2. The ectopic Id-1 gene, which is not under the control of the endogenous promoter, was introduced in the cells using the pLXSN retroviral vector. As a control, cells were infected with an empty pLXSN vector (−)Id-1.
Boyden chamber MDA-MB231 cell invasion studies with CBD and O-1663 CBD analog. Boyden chamber studies for invasion by MDA-MB231 or U251 cells were performed with either CBD or O-1663 CBD analog.
To directly test whether the O-1663 CBD analog could co-target two distinct cannabinoid antitumor pathways, the effects of CBD and the O-1663 CBD analog on cell viability with multiple antagonists were probed (FIG. 25). […] The ability of the O-1663 CBD analog and CBD to inhibit invasion was next compared (FIG. 25, panel C).

Id-1 [5] = experiment: Quantitative Western analysis of Id-1 expression in 4T1 cells; format: cell-based, mouse; conditions: 1.0 μM, two days
Description: To examine whether CBD or O-1663 CBD analog would inhibit Id-1 protein expression in cells proposed for the in-vivo metastic cancer model, quantitative Western analysis was performed with 4T1 cells. 4T1 cells were treated with 1.0 μM of cannabinoid for two days and then analyzed for Id-1 protein expression.

[6] = Toxicity observation in the mouse models of metastasis; conditions: in vivo

SMILES: C=C(C)[C@@H]1CCC(C)=C[C@H]1c1c(O)cc(CCCCC)cc1O [CBD, cannabidiol]
- Ki67 in metastatic foci (Ki67): significant down-regulation of Ki67
- interaction with Temozolomide (combination index) (U251 GBM cells [1]): acts synergistically with Temozolomide
- ACCM tumor cell viability and invasiveness [2]: significant effect on ACCM tumor cell viability and invasiveness
- Id-1 gene expression in SAS, HSC-2, ACCM, ACC2 [2]: downregulated in all cell lines
- SAS tumor cell viability and invasiveness [2]: significant effect on SAS tumor cell viability and invasiveness
- interaction with Paclitaxel (combination index) (4T1 breast cancer cells): acts synergistically with Paclitaxel
- mice in which no tumor cells were observed (U251 GBM cells [3]; 15 mg/kg): one of the five mice
- decrease of tumor area (U251 GBM cells [3]; 15 mg/kg i.p. 5 days a week for 28 days): 95%
- decrease in number of Ki67-positive nuclei (U251 GBM cells [3]; 15 mg/kg, tumors responding to treatment): 87%±9
- Id-1 expression in tumors (U251 GBM cells [3]; tumors responding to treatment): significant down-regulation of Id-1 expression
- tumor proliferation in-vivo (primary tumor volume) (4T1 cells): potent inhibitor of tumor proliferation
- Id-1 protein expression in MDA-MB231, MDA-MB436, PC3, DU145, SAS, U251 and SF126 (Id-1 [4]; 1.5 μM): significant inhibition of Id-1 protein expression
- concentration required for significant downregulation in Id-1 expression, ACCM (Id-1 [4]; salivary gland cancer cell line ACCM): 2.5 µM
- cell invasiveness, (+)Id-1 cells (MDA-MB231 cells; 1.5 μM, two days, cells ectopically expressing Id-1): did not inhibit cell invasiveness
- cell invasiveness, control (−)Id-1 cells (MDA-MB231 cells; 1.5 μM, two days, empty pLXSN vector): significant reduction in cell invasiveness
- invasion of MDA-MB231 cells (MDA-MB231 cells; 0.1, 1.0 or 1.5 μM): significantly reduced the invasion
- IC50 (MDA-MB231 cells; MDA-MB-231, 72 h, treated 3 days, modified Boyden chambers, read-out: IC50, invasion of MDA-MB231 cells): 1000 nM
- IC50 (MDA-MB231 cells; MDA-MB-231, Boyden chamber, confidence limits 110-610, read-out: IC50 for invasion): 260 nM

SMILES: CCCCC(C)(C)c1cc(O)c(C2CCC(C3CCCCC3)CC2)c(O)c1 (centres unmarked) [Compound O-1663]
- Id-1 protein expression compared with CBD (Id-1 [5]): downregulated Id-1 protein expression to a far greater extent than CBD
- overt toxicity (weight, appearance, general activity) [6]: No overt toxicity
- fold more potent than CBD at inhibiting invasion (MDA-MB231 cells): 1.7 fold
- invasion by the cancerous cells compared with CBD (MDA-MB231 cells; 1.0 μM, two days, MDA-MB231 or U251 cells): far superior to CBD in inhibiting invasion
- IC50 (MDA-MB231 cells; MDA-MB-231, 72 h, read-out: IC50, invasion of MDA-MB231 cells): 600 nM
